From ChEMBL document CHEMBL4304831, “Chalcone-Thiazole Hybrids: Rational Design, Synthesis, and Lead Identification against 5-Lipoxygenase” (ACS Med Chem Lett, 2019)

T1: Polyunsaturated fatty acid 5-lipoxygenase (Homo sapiens) (UniProt P09917)
T1 sequence (whole entry): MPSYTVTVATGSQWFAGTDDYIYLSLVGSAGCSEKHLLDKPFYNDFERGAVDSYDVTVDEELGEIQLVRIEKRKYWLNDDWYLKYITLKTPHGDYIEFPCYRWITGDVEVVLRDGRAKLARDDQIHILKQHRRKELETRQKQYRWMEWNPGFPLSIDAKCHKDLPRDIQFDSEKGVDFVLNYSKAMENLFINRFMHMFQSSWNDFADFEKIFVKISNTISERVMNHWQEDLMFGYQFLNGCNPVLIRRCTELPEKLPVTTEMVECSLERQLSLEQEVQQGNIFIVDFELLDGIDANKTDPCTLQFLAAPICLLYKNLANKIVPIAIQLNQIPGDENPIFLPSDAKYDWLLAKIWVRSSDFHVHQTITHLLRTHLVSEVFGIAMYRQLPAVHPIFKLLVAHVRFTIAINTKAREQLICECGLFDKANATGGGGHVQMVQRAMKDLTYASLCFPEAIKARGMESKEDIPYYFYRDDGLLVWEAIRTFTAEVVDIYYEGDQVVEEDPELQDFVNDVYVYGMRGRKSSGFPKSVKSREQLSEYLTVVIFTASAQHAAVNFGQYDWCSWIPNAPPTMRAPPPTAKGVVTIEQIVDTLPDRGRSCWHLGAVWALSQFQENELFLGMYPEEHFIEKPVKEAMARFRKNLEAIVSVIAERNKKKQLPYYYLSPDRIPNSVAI

T2: Polyunsaturated fatty acid 5-lipoxygenase (Homo sapiens, UniProt P09917)
T2 sequence (P09917 whole entry): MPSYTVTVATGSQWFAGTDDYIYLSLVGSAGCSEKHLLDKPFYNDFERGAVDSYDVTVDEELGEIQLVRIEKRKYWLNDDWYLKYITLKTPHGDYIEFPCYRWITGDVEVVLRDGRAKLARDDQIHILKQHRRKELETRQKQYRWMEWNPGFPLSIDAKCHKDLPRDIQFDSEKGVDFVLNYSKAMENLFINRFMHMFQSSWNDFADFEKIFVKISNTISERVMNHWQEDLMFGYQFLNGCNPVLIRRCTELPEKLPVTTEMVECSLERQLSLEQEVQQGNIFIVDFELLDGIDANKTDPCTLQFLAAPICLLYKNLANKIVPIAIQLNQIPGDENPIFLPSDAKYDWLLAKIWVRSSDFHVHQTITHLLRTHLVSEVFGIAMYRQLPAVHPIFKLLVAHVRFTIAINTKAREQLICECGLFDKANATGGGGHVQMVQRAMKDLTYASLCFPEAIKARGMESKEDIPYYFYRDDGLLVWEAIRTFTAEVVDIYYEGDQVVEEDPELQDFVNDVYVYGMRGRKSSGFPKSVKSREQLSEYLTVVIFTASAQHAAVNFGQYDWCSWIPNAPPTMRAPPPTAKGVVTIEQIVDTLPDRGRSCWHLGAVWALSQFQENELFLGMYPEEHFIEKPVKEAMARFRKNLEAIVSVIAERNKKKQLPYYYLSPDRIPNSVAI


Assays:
[1] = molecular target: T1, Polyunsaturated fatty acid 5-lipoxygenase (Homo sapiens); experiment: Inhibition of human recombinant 5-LOX expressed in Escherichia coli BL21 assessed as conversion of arachidonic acid to 5-HPETE at 10 uM using arachidonic acid as substrate in presence of ATP by UV-vis spectrophotometry analysis relative to control
[2] = molecular target: T2, Polyunsaturated fatty acid 5-lipoxygenase; experiment: Inhibition of human recombinant 5-LOX expressed in Escherichia coli BL21 assessed as conversion of arachidonic acid to 5-HPETE using arachidonic acid as substrate in presence of ATP by UV-vis spectrophotometry analysis
[3] = Antioxidant activity assessed as DPPH radical scavenging activity at 10 uM after 30 mins under dark condition relative to control; type: functional
[4] = molecular target: T1, Polyunsaturated fatty acid 5-lipoxygenase (Homo sapiens); experiment: Inhibition of human recombinant 5-LOX pseudoperoxidase activity expressed in Escherichia coli BL21 assessed as compound redox activity by measuring change in absorption at 10 uM using 13(S)-HpODE as substrate in presence of ATP by UV-vis spectrophotometric method relative to control; set-up: scale not given: the % may be the effect or the level left
[5] = compound: COc1cc(/C=C/C(=O)c2sc(NC(=O)c3ccccc3)nc2C)cc(OC)c1OC; experiment: Noncompetitive inhibition of human recombinant 5-LOX expressed in Escherichia coli BL21 assessed as Km for substrate at 2 uM using varying levels arachidonic acid as substrate by Lineweaver-Burk plot analysis (reference value: 1.9 +/- 0.4 uM)
[6] = compound: COc1cc(/C=C/C(=O)c2sc(NC(=O)c3ccccc3)nc2C)cc(OC)c1OC; experiment: Noncompetitive inhibition of human recombinant 5-LOX expressed in Escherichia coli BL21 assessed as Km for substrate at 5 uM using varying levels arachidonic acid as substrate by Lineweaver-Burk plot analysis (reference value: 1.9 +/- 0.4 uM)
[7] = compound: COc1cc(/C=C/C(=O)c2sc(NC(=O)c3ccccc3)nc2C)cc(OC)c1OC; experiment: Noncompetitive inhibition of human recombinant 5-LOX expressed in Escherichia coli BL21 assessed as decrease in Vmax for substrate at 2 uM using varying levels arachidonic acid as substrate by Lineweaver-Burk plot analysis (reference value: 0.38 +/- 0.02 nmol/min)
[8] = compound: COc1cc(/C=C/C(=O)c2sc(NC(=O)c3ccccc3)nc2C)cc(OC)c1OC; experiment: Noncompetitive inhibition of human recombinant 5-LOX expressed in Escherichia coli BL21 assessed as decrease in Vmax for substrate at 5 uM using varying levels arachidonic acid as substrate by Lineweaver-Burk plot analysis (reference value: 0.38 +/- 0.02 nmol/min)
[9] = compound: COc1ccc(C(=O)Nc2nc(C)c(C(=O)/C=C/c3ccc(C)cc3)s2)cc1; experiment: (§1) Competitive inhibition of human recombinant 5-LOX expressed in Escherichia coli BL21 assessed as Vmax for substrate at 2 uM using varying levels arachidonic acid as substrate by Lineweaver-Burk plot analysis (reference value: 0.33 to 0.45 +/- 0.01 nmol/min)
[10] = compound: Cc1nc(NC(=O)c2ccccc2)sc1C(=O)/C=C/c1cc2c(cc1Br)OCO2; experiment: as §1
[11] = compound: COc1ccc(C(=O)Nc2nc(C)c(C(=O)/C=C/c3ccc(C)cc3)s2)cc1; experiment: (§2) Competitive inhibition of human recombinant 5-LOX expressed in Escherichia coli BL21 assessed as Vmax for substrate at 5 uM using varying levels arachidonic acid as substrate by Lineweaver-Burk plot analysis (reference value: 0.33 to 0.45 +/- 0.01 nmol/min)
[12] = compound: Cc1nc(NC(=O)c2ccccc2)sc1C(=O)/C=C/c1cc2c(cc1Br)OCO2; experiment: as §2
[13] = compound: COc1ccc(C(=O)Nc2nc(C)c(C(=O)/C=C/c3ccc(C)cc3)s2)cc1; experiment: (§3) Competitive inhibition of human recombinant 5-LOX expressed in Escherichia coli BL21 assessed as increase in Km for substrate at 2 uM using varying levels arachidonic acid as substrate by Lineweaver-Burk plot analysis (reference value: 0.31 to 0.35 +/- 0.08 to 0.10 uM)
[14] = compound: Cc1nc(NC(=O)c2ccccc2)sc1C(=O)/C=C/c1cc2c(cc1Br)OCO2; experiment: as §3
[15] = compound: COc1ccc(C(=O)Nc2nc(C)c(C(=O)/C=C/c3ccc(C)cc3)s2)cc1; experiment: (§4) Competitive inhibition of human recombinant 5-LOX expressed in Escherichia coli BL21 assessed as increase in Km for substrate at 5 uM using varying levels arachidonic acid as substrate by Lineweaver-Burk plot analysis (reference value: 0.31 to 0.35 +/- 0.08 to 0.10 uM)
[16] = compound: Cc1nc(NC(=O)c2ccccc2)sc1C(=O)/C=C/c1cc2c(cc1Br)OCO2; experiment: as §4

Row | Molecule | inhibition [1] [%] | IC50 [2] [nM] | Activity [4] [%] | Activity [3] [%] | other results
1 | Cc1nc(NC(=O)c2ccccc2)sc1C(=O)/C=C/c1ccc(N(C)C)cc1 | 88.2 | 640 | -12.2 | 0 | –
2 | Cc1ccc(/C=C/C(=O)c2sc(NC(=O)c3ccc(F)cc3)nc2C)cc1 | 91.5 | 540 | -56.3 | 15 | –
3 | CC(c1cc2ccccc2s1)N(O)C(N)=O (centres undefined) | – | – | – | 10.3 | –
4 | COc1ccc(C(=O)Nc2nc(C)c(C(=O)/C=C/c3ccc(F)cc3)s2)cc1 | 88.2 | 560 | 0.3 | 2.1 | –
5 | COc1cc(/C=C/C(=O)c2sc(NC(=O)c3ccccc3)nc2C)cc(OC)c1OC | 100 | 70 | -56.6 | 5.7 | –
6 | Cc1nc(NC(=O)c2ccc(F)cc2)sc1C(=O)/C=C/c1cccs1 | 81.7 | – | – | 0 | –
7 | Cc1nc(NC(=O)c2ccc(F)cc2)sc1C(=O)/C=C/c1ccc(N(C)C)cc1 | 70.2 | – | – | 3.9 | –
8 | Cc1nc(NC(=O)c2ccccc2)sc1C(=O)/C=C/c1cc2c(cc1Br)OCO2 | 100 | 120 | 1.2 | 5.4 | –
9 | Cc1nc(NC(=O)c2ccc(F)cc2)sc1C(=O)/C=C/c1ccco1 | 65.3 | – | – | 8.2 | –
10 | O=C1O[C@H]([C@@H](O)CO)C(O)=C1O | – | – | – | 60.5 | –
11 | COc1ccc(/C=C/C(=O)c2sc(NC(=O)c3ccccc3)nc2C)cc1OC | 70.2 | – | – | 6.4 | –
12 | Cc1nc(NC(=O)c2ccc(F)cc2)sc1C(=O)/C=C/c1cc2c(cc1Br)OCO2 | 50.6 | – | – | 5.1 | –
13 | COc1ccc(C(=O)Nc2nc(C)c(C(=O)/C=C/c3ccc(C)cc3)s2)cc1 | 100 | 80 | 5.6 | 5.5 | –
14 | Cc1nc(NC(=O)c2ccc([N+](=O)[O-])cc2)sc1C(=O)/C=C/c1ccc(Cl)cc1 | 48.8 | – | – | 2.4 | –
15 | Polyunsaturated fatty acid 5-lipoxygenase (Homo sapiens), P09917 (protein) MPSYTVTVATGSQWFAGTDDYIYLSLVGSAGCSEKHLLDKPFYNDFERGAVDSYDVTVDEELGEIQLVRIEKRKYWLNDDWYLKYITLKTPHGDYIEFPCYRWITGDVEVVLRDGRAKLARDDQIHILKQHRRKELETRQKQYRWMEWNPGFPLSIDAKCHKDLPRDIQFDSEKGVDFVLNYSKAMENLFINRFMHMFQSSWNDFADFEKIFVKISNTISERVMNHWQEDLMFGYQFLNGCNPVLIRRCTELPEKLPVTTEMVECSLERQLSLEQEVQQGNIFIVDFELLDGIDANKTDPCTLQFLAAPICLLYKNLANKIVPIAIQLNQIPGDENPIFLPSDAKYDWLLAKIWVRSSDFHVHQTITHLLRTHLVSEVFGIAMYRQLPAVHPIFKLLVAHVRFTIAINTKAREQLICECGLFDKANATGGGGHVQMVQRAMKDLTYASLCFPEAIKARGMESKEDIPYYFYRDDGLLVWEAIRTFTAEVVDIYYEGDQVVEEDPELQDFVNDVYVYGMRGRKSSGFPKSVKSREQLSEYLTVVIFTASAQHAAVNFGQYDWCSWIPNAPPTMRAPPPTAKGVVTIEQIVDTLPDRGRSCWHLGAVWALSQFQENELFLGMYPEEHFIEKPVKEAMARFRKNLEAIVSVIAERNKKKQLPYYYLSPDRIPNSVAI | – | – | – | – | Km [5]: 1.8 µM; Km [6]: 2.1 µM; Vmax [7]: 0.29 nmol/min; Vmax [8]: 0.25 nmol/min; Vmax [9]: 0.32 nmol/min; Vmax [10]: 0.43 nmol/min; Vmax [11]: 0.31 nmol/min; Vmax [12]: 0.42 nmol/min; Km [13]: 0.43 µM; Km [14]: 1.41 µM; Km [15]: 0.53 µM; Km [16]: 2.91 µM

The next lines start with results.

Row | inhibition [1] [%] | IC50 [2] [nM] | Activity [4] [%] | Molecule | Activity [3] [%] | other results
16 | 98 | 240 | -40.2 | Cc1nc(NC(=O)c2ccccc2)sc1C(=O)/C=C/c1cccc([N+](=O)[O-])c1 | 8.7 | –
17 | 52.3 | – | – | Cc1nc(NC(=O)c2ccccc2)sc1C(=O)/C=C/c1ccc(Br)cc1 | 2.4 | –
18 | 71.9 | – | – | Cc1nc(NC(=O)c2ccccc2)sc1C(=O)/C=C/c1cccs1 | 2.2 | –
19 | 42.5 | – | – | Cc1nc(NC(=O)c2ccccc2)sc1C(=O)/C=C/c1cccc(Br)c1 | 5.7 | –
20 | 58.8 | – | – | COc1ccc(/C=C/C(=O)c2sc(NC(=O)c3ccccc3)nc2C)cc1 | 7.9 | –
21 | 73.5 | – | – | Cc1nc(NC(=O)c2ccccc2)sc1C(=O)/C=C/c1ccccc1 | 2.5 | –
22 | 98 | 140 | -12.5 | Cc1nc(NC(=O)c2ccccc2)sc1C(=O)/C=C/c1ccc(F)cc1 | 3 | –
23 | 57.2 | – | – | Cc1nc(NC(=O)c2ccccc2)sc1C(=O)/C=C/c1ccco1 | 3.4 | –
24 | 63.7 | – | – | Cc1nc(NC(=O)c2ccccc2)sc1C(=O)/C=C/c1ccc(Cl)cc1 | 8.8 | –
25 | 75.1 | – | – | Cc1ccc(/C=C/C(=O)c2sc(NC(=O)c3ccccc3)nc2C)cc1 | 3 | –
